Measurements reported in patent US9476099B2 (TRUSTEES OF DARTMOUTH COLLEGE, priority 2012, dated 2016).

Test system: gene promoters in NT2/D1-R1 control and DNMT3B knockdown cells
Test: Genome-wide promoter methylation analysis, HumanMethylation27 BeadChip (Table 15)
Format: cell-based, human
Conditions: sh-ctrl + 5aza
Procedure: DNA methylation analysis was performed in samples in triplicate using the […] […] assay with the HumanMethylation27 BeadChip ([…]) and the BeadChip was scanned on the BeadArray Reader ([…]), according to the manufacturer's instructions. Raw data was normalized and analyzed with Genome Studio software ([…]). The HumanMethylation27 BeadChip assays 27,578 CpGs covering more than 14,000 genes, mostly from promoter regions. […] Hierarchical clustering was performed as stated above. HumanMethylation27 BeadChip data and gene expression microarray data were submitted to NCBI GEO.

## Nc1ncn([C@H]2C[C@H](O)[C@@H](CO)O2)c(=O)n1 [5aza]
  SERPING1 cg12783776 promoter methylation Mean: 0.601
  SFRS16 cg19317638 promoter methylation Mean: 0.560
  SFXN3 cg04880063 promoter methylation Mean: 0.170
  SH3BGRL2 cg03080985 promoter methylation Mean: 0.398
  SHH cg25167838 promoter methylation Mean: 0.175
  SKIP cg04072323 promoter methylation Mean: 0.432
  SLC30A2 cg05674944 promoter methylation Mean: 0.658
  SMCP cg09542291 promoter methylation Mean: 0.705
  SNX9 cg26845300 promoter methylation Mean: 0.985
  SOX17 cg21226224 promoter methylation Mean: 0.858
  SPRR1B cg24884084 promoter methylation Mean: 0.488
  SSH1 cg11747499 promoter methylation Mean: 0.529
  SSTR1 cg27590397 promoter methylation Mean: 1.209
  TAC1 cg07550362 promoter methylation Mean: 0.798
  TADA3L cg09279263 promoter methylation Mean: 0.445
  TERT cg02545192 promoter methylation Mean: 0.547
  TNFSF10 cg16555388 promoter methylation Mean: 0.687
  TNRC4 cg26093148 promoter methylation Mean: 0.866
  TNRC15 cg07230446 promoter methylation Mean: 0.425
  TRAF3 cg24165760 promoter methylation Mean: 0.878
  TRIM2 cg12793610 promoter methylation Mean: 0.815
  TRIM36 cg10693071 promoter methylation Mean: 0.822
  TRPM3 cg20555507 promoter methylation Mean: 0.413
  UNC5D cg00297600 promoter methylation Mean: 0.612
  WDR13 cg25053301 promoter methylation Mean: 0.317
  ZFHX1B cg15377518 promoter methylation Mean: 0.680
  ZNF222 cg09757277 promoter methylation Mean: 0.431
  cg07512517 promoter methylation Mean: 0.619
NT2/D1-R1 control cells
  Mean promoter methylation, ABCA3 cg02331561: 0.189
  Mean promoter methylation, ABLIM3 cg05026186: 0.365
  Mean promoter methylation, ACTL6B cg08572611: 0.210
  Mean promoter methylation, ANKRD46 cg23737055: 0.329
  Mean promoter methylation, ARNT2 cg17788682: 0.212
  Mean promoter methylation, B4GALNT3 cg05769161: 0.577
  Mean promoter methylation, BTBD1 cg16958189: 0.392
  Mean promoter methylation, C1RL cg22593785: 0.347
  Mean promoter methylation, C10orf10 cg17186163: 0.371
  Mean promoter methylation, C10orf72 cg02569613: 0.553
  Mean promoter methylation, C12orf34 cg01335367: 0.987
  Mean promoter methylation, C17orf40 cg18042079: 0.207
  Mean promoter methylation, C19orf30 cg07456645: 0.552
  Mean promoter methylation, C20orf29 cg09158909: 0.322
  Mean promoter methylation, C22orf9 cg11221513: 0.402
  Mean promoter methylation, CACNA1G cg18454685: 0.587
  Mean promoter methylation, CAMKK2 cg01369981: 0.344
  Mean promoter methylation, CART cg23300372: 0.445
  Mean promoter methylation, CCKBR cg13346411: 0.411
  Mean promoter methylation, CDC42EP1 cg13951472: 0.342
  Mean promoter methylation, CDKN2A cg10895543: 0.249
  Mean promoter methylation, CHST8 cg24739326: 0.660
  Mean promoter methylation, CPSF1 cg20326853: 0.408
  Mean promoter methylation, CSMD1 cg22619018: 0.365
  Mean promoter methylation, DCTN3 cg22579849: 0.613
  Mean promoter methylation, DDX42 cg05797656: 0.226
  Mean promoter methylation, DGKD cg25506396: 0.238
  Mean promoter methylation, DGKI cg06277657: 0.365
  Mean promoter methylation, DKK2 cg01404615: 0.819
  Mean promoter methylation, DUSP8 cg02271621: 0.296
  Mean promoter methylation, EHD2 cg12603043: 0.398
  Mean promoter methylation, ELK1 cg21860846: 0.343
  Mean promoter methylation, EMP3 cg01795122: 0.187
  Mean promoter methylation, EYA4 cg01805282: 0.360
  Mean promoter methylation, FAM70B cg15350194: 0.396
  Mean promoter methylation, FAM73B cg00729541: 0.365
  Mean promoter methylation, FCHSD2 cg17114257: 0.423
  Mean promoter methylation, FLJ20273 cg01704534: 0.410
  Mean promoter methylation, FLJ20273 cg15967525: 0.759
  Mean promoter methylation, FLJ42486 cg03734874: 0.711
  Mean promoter methylation, GAB3 cg12938998: 0.347
  Mean promoter methylation, GALR1 cg04534765: 0.440
  Mean promoter methylation, GCN5L2 cg08434547: 0.555
  Mean promoter methylation, GNAS cg00943909: 0.621
  Mean promoter methylation, HBQ1 cg07703401: 0.587
  Mean promoter methylation, HCN1 cg11285003: 0.369
  Mean promoter methylation, HES6 cg24127874: 0.763
  Mean promoter methylation, HEYL cg25462291: 0.576
  Mean promoter methylation, HRH3 cg08186362: 0.666
  Mean promoter methylation, ICAM1 cg22874046: 0.349
  Mean promoter methylation, ID2 cg23525180: 0.576
  Mean promoter methylation, IGFBP3 cg04796162: 0.501
  Mean promoter methylation, KATNB1 cg15153383: 0.474
  Mean promoter methylation, KCNAB1 cg23873703: 0.548
  Mean promoter methylation, KCNC2 cg18573383: 0.277
  Mean promoter methylation, KIAA1822 cg02867079: 0.842
  Mean promoter methylation, KIAA1840 cg06121469: 0.365
  Mean promoter methylation, KRTCAP2 cg11278262: 0.432
  Mean promoter methylation, LGALS1 cg00292662: 0.493
  Mean promoter methylation, LGR6 cg23578193: 0.423
  Mean promoter methylation, LOX cg06508445: 0.190
  Mean promoter methylation, MAP6D1 cg03705396: 0.522
  Mean promoter methylation, MGC9850 cg21097640: 0.292
  Mean promoter methylation, MRPL38 cg11653266: 0.224
  Mean promoter methylation, MT cg14078309: 0.213
  Mean promoter methylation, MYOD1 cg18555440: 0.561
  Mean promoter methylation, OGG1 cg25415932: 0.526
  Mean promoter methylation, OR10J1 cg25076881: 0.576
  Mean promoter methylation, OSTbeta cg16029760: 0.344
  Mean promoter methylation, PABPC4 cg12585282: 0.296
  Mean promoter methylation, PDE8B cg18089852: 0.203
  Mean promoter methylation, PHLDA2 cg01263716: 0.504
  Mean promoter methylation, PHLDA2 cg04720330: 0.379
  Mean promoter methylation, PIB5PA cg18053607: 0.403
  Mean promoter methylation, PLOD1 cg23286660: 0.468
  Mean promoter methylation, PPCDC cg11632617: 0.523
  Mean promoter methylation, PRDM12 cg09191327: 0.457
  Mean promoter methylation, PRMT8 cg23739862: 0.125
  Mean promoter methylation, PTPRO cg19402885: 0.671
  Mean promoter methylation, PTPRO cg27196745: 0.570
  Mean promoter methylation, R3HDML cg17692403: 0.529
  Mean promoter methylation, RAB37 cg12448933: 0.483
  Mean promoter methylation, RASA4 cg05749161: 0.157
  Mean promoter methylation, RASL11A cg06611744: 0.348
  Mean promoter methylation, SCAMP3 cg01745448: 0.308
  Mean promoter methylation, SCARA5 cg10171125: 0.408
  Mean promoter methylation, SEC14L2 cg14452140: 0.705
  Mean promoter methylation, SH3BGRL3 cg03100146: 0.661
  Mean promoter methylation, SHH cg00577464: 0.433
  Mean promoter methylation, SLC6A5 cg20632573: 0.291
  Mean promoter methylation, SLC25A22 cg02973416: 0.702
  Mean promoter methylation, SLC35C2 cg02413850: 0.254
  Mean promoter methylation, SLIT1 cg07143898: 0.325
  Mean promoter methylation, SORCS3 cg16787600: 0.786
  Mean promoter methylation, SOX15 cg01029592: 0.276
  Mean promoter methylation, SOX15 cg13098960: 0.472
  Mean promoter methylation, SOX17 cg02919422: 0.617
  Mean promoter methylation, STXBP3 cg11666924: 0.260
  Mean promoter methylation, SUSD2 cg23349242: 0.631
  Mean promoter methylation, TBXA2R cg09998229: 0.659
  Mean promoter methylation, THAP3 cg11688219: 0.581
  Mean promoter methylation, TMEM25 cg20001829: 0.424
  Mean promoter methylation, TMEM106C cg25884854: 0.482
  Mean promoter methylation, TRAPPC1 cg01667702: 0.471
  Mean promoter methylation, UBA52 cg24356797: 0.192
  Mean promoter methylation, UNQ2446 cg10574499: 0.619
  Mean promoter methylation, VPREB1 cg18441959: 0.524
  Mean promoter methylation, ZGPAT cg04078896: 0.308
  Mean promoter methylation, ZGPAT cg18611245: 0.736
  Mean promoter methylation, ZNF585B cg03751813: 0.392
  Mean promoter methylation, ZNF702 cg07559730: 0.457
